Test results from paper PMC3731359 (PLoS ONE, 2013).
Entries after “also recorded” stand apart in the source; their conditions may differ.

Tests used:
cullin-3 = test: Western blot: transfer of UB variants to cullin-3; type: biochemical; conditions: 5 µM HA-tagged protein, 1 µM NAE, 1 µM Ubc12, 1 µM cullin, 1 mM ATP, 1 h, room temperature, anti-HA Western blot
Protocol: (§1) Figure 6 Transfer of phage selected UB variants to NAE (E1), Ubc12 (E2), and cullin-3. HA-tagged wt UB, wt Nedd8 and UB variants were used in the assay. In the control reaction, either Ubc12 or cullin-3 in complex with Rbx1 was missing. The blots were probed with a mouse anti-HA antibody and a goat anti-mouse IgG antibody linked to HRP.
(§2) 20 µL of the reaction mixture were loaded on a 4–15% SDS-PAGE gel (Bio-Rad). After electrophoresis, the protein bands were electroblotted onto a piece of polyvinylidene fluoride membrane (Bio-Rad). The membrane was blocked with 3% BSA in TBS buffer for 1 hour followed by incubation with 3% BSA in TBS buffer containing 1∶500 diluted 200 µg/mL anti-HA antibody (Santa Cruz Biotechnology) and 1∶10,000 diluted anti-mouse horseradish peroxidase conjugate (Pierce) for 1 hour, respectively. The membrane was then washed 5 times with TBS-T buffer and 5 times with TBS buffer followed by detection with the ECL luminescent detection kit (GE Healthcare).

Ubc12 (E2) = test: Western blot: transfer of UB variants to Ubc12; type: biochemical; conditions: 5 µM HA-tagged protein, 1 µM NAE, 1 µM Ubc12, 1 µM cullin, 1 mM ATP, 1 h, room temperature, anti-HA Western blot
Protocol: as §1, §2

NAE (E1) = test: Western blot: formation of UB∼NAE thioester conjugates; type: biochemical; conditions: 5 µM HA-tagged protein, 1 µM NAE, 1 mM ATP, 1 h, room temperature, anti-HA Western blot
Protocol: as §1, §2

NAE (Homo sapiens) = NAE (Homo sapiens) (UniProt Q13564); conditions: cited from earlier work
UAE = conditions: Ala72 of Nedd8 mutated to Arg; cited from earlier work
Text: As expected the two proteins also adopt very similar structures featuring the β-grasp fold. Their E1 enzymes are also homologous to each other in both peptide sequences and crystal structures, except that NAE is a heterodimer of two subunits, APPBP1 and Uba3, while UAE is composed of a single chain [8], [20], [21].

NAE = target: T1, NAE (Homo sapiens, UniProt Q13564+Q8TBC4); test: ATP/PPi exchange assay (NAE activation kinetics); type: biochemical; conditions: 50 µM heptameric peptide, 0.5 µM NAE, 30 min, room temperature; versus background with no peptide added
T1 construct: made in house; host or cells: E. coli BL21(DE3)pLysS
T1 sequence (Q8TBC4 22-463 limits assumed): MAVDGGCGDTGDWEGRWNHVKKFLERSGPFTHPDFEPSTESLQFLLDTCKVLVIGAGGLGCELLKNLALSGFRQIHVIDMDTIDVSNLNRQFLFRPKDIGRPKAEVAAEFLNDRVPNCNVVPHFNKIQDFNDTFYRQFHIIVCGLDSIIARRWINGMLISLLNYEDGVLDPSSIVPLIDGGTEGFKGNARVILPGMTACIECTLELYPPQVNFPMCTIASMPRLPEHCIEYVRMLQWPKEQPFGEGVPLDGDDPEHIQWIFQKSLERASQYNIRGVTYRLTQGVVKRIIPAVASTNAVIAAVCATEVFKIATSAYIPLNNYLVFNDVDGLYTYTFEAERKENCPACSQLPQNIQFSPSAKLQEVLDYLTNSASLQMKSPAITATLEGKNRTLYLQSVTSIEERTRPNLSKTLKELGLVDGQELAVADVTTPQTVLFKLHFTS
T1 sequence (Q13564 1-534 partner): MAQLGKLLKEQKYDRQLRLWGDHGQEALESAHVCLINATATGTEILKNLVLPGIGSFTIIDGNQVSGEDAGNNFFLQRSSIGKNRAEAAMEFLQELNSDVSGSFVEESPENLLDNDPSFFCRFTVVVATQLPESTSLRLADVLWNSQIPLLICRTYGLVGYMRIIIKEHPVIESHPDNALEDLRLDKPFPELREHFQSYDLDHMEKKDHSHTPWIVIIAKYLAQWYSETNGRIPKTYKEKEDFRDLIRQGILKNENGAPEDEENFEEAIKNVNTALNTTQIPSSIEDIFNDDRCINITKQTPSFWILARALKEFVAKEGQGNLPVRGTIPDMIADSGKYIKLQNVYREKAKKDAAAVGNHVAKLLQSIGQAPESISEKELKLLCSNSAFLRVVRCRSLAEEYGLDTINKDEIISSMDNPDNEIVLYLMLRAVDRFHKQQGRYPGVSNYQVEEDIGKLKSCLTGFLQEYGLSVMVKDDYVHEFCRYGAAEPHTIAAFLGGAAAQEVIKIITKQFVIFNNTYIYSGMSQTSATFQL
Text: We used the ATP/PPi exchange assay [28], [29] to measure the kinetics of NAE activation of UB mutants. In this assay, NAE catalyzes the condensation of UB with ATP to form a UB-AMP conjugate coupled to the release of PPi. Externally added PPi labeled with the radioactive isotope ^32P sets the reaction in reverse thus incorporating ^32PPi into ATP. Radioactive ATP formed in the reaction is captured by charcoal and quantified. The rate of ^32PPi exchange into ATP reflects the reactivities of NAE with the UB variants to form UB-AMP intermediates.
The reaction was incubated for 30 min at room temperature and then quenched by the addition of 0.5 mL slurry of charcoal in 2% trichloroacetic acid. After centrifugation, the charcoal pellet was washed 3 times each time with 1 mL 2% trichloroacetic acid, and eventually resuspended in 0.5 mL water and 3.5 mL Ultima Gold LSC-cocktail (Perkin Elmer). The radioactivity bound to charcoal was determined by liquid scintillation counting.
The reaction was incubated at room temperature for 5, 10, 15, 20 and 25 minutes before it was quenched with the addition of 0.5 mL slurry of charcoal in 2% trichloroacetic acid. The radioactivity incorporated into charcoal-bound ATP was measured by liquid scintillation counting. K1/2 and kcat values of the ATP-PPi exchange reaction were calculated by fitting the data to the Michaelis-Menten equation with the data analysis software Origin. To measure peptide activation by NAE, 0.1 µM NAE was used in the reaction with the concentration of the peptides varying from 10 µM to 1000 µM.

Substance: N11: UB variant from phage selection, C-terminal sequence 71AAAAGG76
- transfer to cullin (cullin modification) (cullin-3): substantial cullin modification at a level similar or exceeding that of wt Nedd8; also recorded: can also be transferred through the NAE-Ubc12 cascade to modify cullin at a similar level as N26 and the wt Nedd8
- transfer from NAE to Ubc12 (UB∼Ubc12 conjugates) (Ubc12 (E2)): can also be transferred from NAE to Ubc12

Substance: N27: UB variant from phage selection, C-terminal sequence 71YQTYSG76, Gly75 replaced by Ser
- transfer to cullin (cullin modification) (cullin-3): its transfer to Ubc12 and cullin is blocked
- transfer from NAE to Ubc12 (UB∼Ubc12 conjugates) (Ubc12 (E2)): does not form a UB∼Ubc12 conjugate
- formation of UB∼NAE conjugates (NAE (E1)): normal level of NAE activation and thioester formation with NAE

Substance: Nedd8 (from UniProt Q15843)
- Kd (NAE (Homo sapiens)): 8.75 µM

Substance: Nedd8 mutant: Nedd8 with Ala72 mutated to Arg
- activation by UAE (UAE): can be activated by UAE
- increase in affinity with UAE (UAE): 65 fold

Substance: VAAAAGG [pN11, heptameric peptide VAAAAGG derived from UB variant N11]
- activation by NAE (NAE): not reactive with NAE
